Entries after “also recorded” stand apart in the source; their conditions may differ.
What was measured:
α-glucosidase [1] = assay: High-resolution α-glucosidase inhibition profiling (biochromatogram) of HPLC microfractions; assay type: biochemical, Saccharomyces cerevisiae; design: α-glucosidase inhibitory activity of peak in biochromatogram / α-glucosidase inhibitory activity, direct readout from the biochromatogram: concentration or dose not given beside the values; settings: for α-glucosidase inhibitory activity as seen in the biochromatogram of E. crotonoides extract (in words): crude defatted ethyl acetate extract, C18 column; for α-glucosidase inhibitory activity of peak in biochromatogram: microfractionation of fraction Fr.2 on PFP column; for α-glucosidase inhibitory activity of peak in biochromatogram / α-glucosidase inhibitory activity, direct readout from the biochromatogram: relative inhibition, quantity unknown; for α-glucosidase inhibitory activity, direct readout from the biochromatogram: biochromatogram of crude defatted extract
Experimental: Thus, 0.4 mg of the extract of E. crotonoides was subjected to analytical-scale reversed-phase HPLC, and the eluate in the retention time range from 3.0 to 78.0 min was fractionated into four 96-well microplates, yielding a resolution of 4.7 data points/min (the first column of each microplate was reserved for blanks and controls). This was followed by evaporation of the HPLC eluate from all wells, reconstitution in buffer containing 10% DMSO, and assessment of the α-glucosidase inhibitory activity of all wells (final concentration of DMSO during assay = 5%). The inhibitory activities (calculated as percentage inhibition) were plotted against the retention time from the microfractionation to give the high-resolution α-glucosidase inhibition profile (biochromatogram) shown in Figure 1. The HPLC chromatogram at 254 nm is shown with the blue line (top) and the high-resolution α-glucosidase inhibition profile shown with the red line at the bottom. The high resolution of the biochromatogram allows direct correlation of HPLC peaks and peaks in the biochromatogram—thereby pinpointing peaks corresponding to compounds with α-glucosidase inhibitory activity.
(§1) Methanol and ethyl acetate used for extraction were purchased from Tedia (Fairfield, OH, USA). Formic acid was obtained from Merck (Darmstadt, Germany) and water was prepared by a deionization and 0.22-µm membrane filtration system (Milipore, Billerica, MA, USA).
Microfractionation was performed with an Agilent 1200 series instrument (Santa Clara, CA, USA) consisting of a G1316A quartenary pump, a G1322A degasser, a G1316A thermostatted column compartment, a G1315C photodiode-array detector, a G1364C fraction collector, and a G1367C high-performance auto sampler, controlled by Agilent ChemStation ver. B.03.02 software. The columns used were a Phenomenex C18(2) Luna (150 mm × 4.6 mm, 3 μm particle size, 100 Å pore size) and a Phenomenex PFP Kinetex (150 mm × 4.6 mm, 2.6 μm particle size, 100 Å pore size). For fractionation of the crude defatted ethyl acetate extract of E. crotonoides (injection: 4 μL; concentration: 100 mg/mL) the temperature was maintained at 40 °C and the flow rate at 0.5 mL/min. The solvents were a binary gradient mixture of water–acetonitrile (95:5 v/v) as eluent A and acetonitrile–water (95:5 v/v) as eluent B, both acidified with 0.1% formic acid. The following elution profile was used: 0 min, 10% B; 35 min, 26% B; 50 min, 35% B; 60 min, 40% B; 90 min, 100% B, and the eluate from 3 to 78 min was fractionated into four 96-well microplates, leading to a resolution of 4.7 data points per min. For fractionation of Fr.2 (injection: 2 μL; concentration: 33 mg/mL) the same conditions as described above were used, but with methanol and the PFP column instead of acetonitrile and the C18 column. The eluate from 8 to 30 min was fractionated into one 96-well microplate (resolution: 4.0 data points per min) using the following gradient: 0 min, 50% B; 3 min, 50% B; 34 min, 59% B; 35 min 100% B; 38 min, 100% B. The collected fractions were evaporated to dryness using a Savant SPD121P speed vacuum concentrator coupled with a RVT400 refrigerated vapor trap and an OFP-400 oil free pump (Holbrook, NY, USA). The α-glucosidase inhibitiory activity of the fractions was determined according to the previously described procedure. Briefly, the content of each well was dissolved in 100 μL of 0.1 M phosphate buffer containing 10% of DMSO and added 80 μL of the α-glucosidase solution. After incubation at 28 °C for 10 min the reaction was initiated by addition of 20 μL of PNPG (10 mM in phosphate buffer) (final volume = 200 μL and final DMSO = 5%). The cleavage product of PNPG was monitored at 405 nm for 35 min using a Multiskan FC microplate photometer (Thermo Scientific, Waltham, MA, USA) and the percentage enzyme inhibition was calculated. […]

α-glucosidase [2] = molecular target: α-glucosidase; design: method as in PMID 25172103; settings: known as a weak inhibitor; cited from earlier work
yeast α-glucosidase = assay: α-glucosidase inhibition assay, dilution series for IC50 determination (PNPG substrate); assay type: biochemical, Saccharomyces cerevisiae; settings: for IC50: isolated compounds, means ± SD of triplicate experiments
Experimental: as §1
Microfractionation was performed with an Agilent 1200 series instrument (Santa Clara, CA, USA) consisting of a G1316A quartenary pump, a G1322A degasser, a G1316A thermostatted column compartment, a G1315C photodiode-array detector, a G1364C fraction collector, and a G1367C high-performance auto sampler, controlled by Agilent ChemStation ver. B.03.02 software. The columns used were a Phenomenex C18(2) Luna (150 mm × 4.6 mm, 3 μm particle size, 100 Å pore size) and a Phenomenex PFP Kinetex (150 mm × 4.6 mm, 2.6 μm particle size, 100 Å pore size). For fractionation of the crude defatted ethyl acetate extract of E. crotonoides (injection: 4 μL; concentration: 100 mg/mL) the temperature was maintained at 40 °C and the flow rate at 0.5 mL/min. The solvents were a binary gradient mixture of water–acetonitrile (95:5 v/v) as eluent A and acetonitrile–water (95:5 v/v) as eluent B, both acidified with 0.1% formic acid. The following elution profile was used: 0 min, 10% B; 35 min, 26% B; 50 min, 35% B; 60 min, 40% B; 90 min, 100% B, and the eluate from 3 to 78 min was fractionated into four 96-well microplates, leading to a resolution of 4.7 data points per min. For fractionation of Fr.2 (injection: 2 μL; concentration: 33 mg/mL) the same conditions as described above were used, but with methanol and the PFP column instead of acetonitrile and the C18 column. The eluate from 8 to 30 min was fractionated into one 96-well microplate (resolution: 4.0 data points per min) using the following gradient: 0 min, 50% B; 3 min, 50% B; 34 min, 59% B; 35 min 100% B; 38 min, 100% B. The collected fractions were evaporated to dryness using a Savant SPD121P speed vacuum concentrator coupled with a RVT400 refrigerated vapor trap and an OFP-400 oil free pump (Holbrook, NY, USA). The α-glucosidase inhibitiory activity of the fractions was determined according to the previously described procedure. Briefly, the content of each well was dissolved in 100 μL of 0.1 M phosphate buffer containing 10% of DMSO and added 80 μL of the α-glucosidase solution. After incubation at 28 °C for 10 min the reaction was initiated by addition of 20 μL of PNPG (10 mM in phosphate buffer) (final volume = 200 μL and final DMSO = 5%). The cleavage product of PNPG was monitored at 405 nm for 35 min using a Multiskan FC microplate photometer (Thermo Scientific, Waltham, MA, USA) and the percentage enzyme inhibition was calculated. The α-glucosidase inhibition of each well was plotted at their respective retention times underneath the HPLC chromatogram to obtain a high-resolution biochromatogram.
Preparative-scale fractionation was performed using an Agilent 1100 series instrument equipped with a multiple wavelength detector, an autosampler and two preparative-scale solvent delivery pumps. The column used was a Phenomenex C18(2) Luna (250 mm × 21.2 mm, 5 μm particle size, 100 Å pore size) and the gradient method was as follows: 0 min, 20% B; 27 min, 35% B; 37 min, 40% B; 40 min, 100% B; 46 min, 100% B; 47 min, 20% B; 52 min, 20% B using a binary mixture of water–acetonitrile (95:5 v/v) as eluent A and acetonitrile–water (95:5 v/v) as eluent B, both acidified with 0.1% formic acid.

## O=C(/C=C/c1ccc(O)c(O)c1)O[C@H]1[C@H](O)C[C@](O)(C(=O)O)C[C@H]1OC(=O)/C=C/c1ccc(O)c(O)c1 [Compound 8, 3,4-di-O-caffeoylquinic acid]
α-glucosidase [1]
  α-glucosidase inhibitory activity as seen in the biochromatogram of E. crotonoides extract (in words): no or very low

## O=C(/C=C/c1ccc(O)c(O)c1)O[C@@H]1C[C@](O)(C(=O)O)C[C@@H](OC(=O)/C=C/c2ccc(O)c(O)c2)[C@H]1O [Compound 9, 3,5-di-O-caffeoylquinic acid]
α-glucosidase [1]
  α-glucosidase inhibitory activity as seen in the biochromatogram of E. crotonoides extract (in words): no or very low

## O=C(/C=C/c1ccc(O)c(O)c1)O[C@@H]1[C@H](O)C[C@@](O)(C(=O)O)C[C@H]1OC(=O)/C=C/c1ccc(O)c(O)c1 [Compound 11, 4,5-di-O-caffeoylquinic acid]
α-glucosidase [2]
  IC50: > 100 µM
α-glucosidase [1]
  α-glucosidase inhibitory activity as seen in the biochromatogram of E. crotonoides extract (in words): no or very low; also recorded: minor

## O=C(/C=C/c1ccc(O)c(O)c1)OC[C@H]1O[C@@H](Oc2c(-c3ccc(O)c(O)c3)oc3cc(O)cc(O)c3c2=O)[C@H](O)[C@@H](O)[C@@H]1O [Compound 12, quercetin-3-O-(6″-(E)-O-caffeoyl)-β-D-glucoside]
α-glucosidase [1]
  α-glucosidase inhibitory activity as seen in the biochromatogram of E. crotonoides extract (in words): minor

## O=c1c(O)c(-c2ccc(O)c(O)c2)oc2cc(O)cc(O)c12 [Compound 16, quercetin]
α-glucosidase [1]
  α-glucosidase inhibitory activity of peak in biochromatogram: 82%

## O=C(/C=C/c1ccc(O)cc1)OC[C@H]1O[C@@H](Oc2c(-c3ccc(O)cc3)oc3cc(O)cc(O)c3c2=O)[C@H](O)[C@@H](O)[C@@H]1O [Compound 17, trans-tiliroside]
Yeast α-glucosidase; 210 μM
  Inhibition at 210 μM: 4.5%
Yeast α-glucosidase
  IC50: > 210 µM
α-glucosidase [1]
  α-glucosidase inhibitory activity of peak in biochromatogram: 23%

## O=c1cc(-c2ccc(O)c(O)c2)oc2cc(O)cc(O)c12 [Compound 19, luteolin]
Yeast α-glucosidase
  IC50: 59.6 ± 1.32 µM
α-glucosidase [1]
  α-glucosidase inhibitory activity of peak in biochromatogram: 32%

## COc1c(-c2ccc(O)c(O)c2)oc2cc(O)cc(O)c2c1=O [Compound 20, quercetin 3-methyl ether]
Yeast α-glucosidase
  IC50: 20.4 ± 1.3 µM
α-glucosidase [1]
  α-glucosidase inhibitory activity of peak in biochromatogram: 70%

## CCCCOC(=O)[C@]1(O)C[C@@H](OC(=O)/C=C/c2ccc(O)c(O)c2)[C@@H](O)[C@H](OC(=O)/C=C/c2ccc(O)c(O)c2)C1 [Compound 26, 3,5-di-O-caffeoylquinic acid n-butyl ester]
Yeast α-glucosidase
  IC50: 5.93 ± 0.12 µM
α-glucosidase [1]
  α-glucosidase inhibitory activity, direct readout from the biochromatogram: 92%

## CCCCOC(=O)[C@]1(O)C[C@@H](O)[C@@H](OC(=O)/C=C/c2ccc(O)c(O)c2)[C@H](OC(=O)/C=C/c2ccc(O)c(O)c2)C1 [Compound 29, 4,5-di-O-caffeoylquinic acid n-butyl ester]
Yeast α-glucosidase
  IC50: 5.2 ± 0.3 µM
α-glucosidase [1]
  α-glucosidase inhibitory activity, direct readout from the biochromatogram: 57%

— article PMC6273868, “High-Resolution α-Glucosidase Inhibition Profiling Combined with HPLC-HRMS-SPE-NMR for Identification of Antidiabetic Compounds in Eremanthus crotonoides (Asteraceae)” (Molecules, 2016)
